Test results taken from patent publication US20240294551A1 (AMGEN INC., priority 2022, published 2024).
Counter-ions that a name gives are not always drawn. Like-named read-outs stand apart in the source and are kept apart here.

Key:
[1] = system: Phosphorylation of ERK1/2 in AsPC-1 cells; experiment: Phospho-ERK1/2 MSD Assay; type: cell-based, human; settings: read-out: 2 h p-ERK (AsPC-1 cells), IC50
Outline: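 Read-out: MSD electrochemiluminescent detection of phosphorylated ERK1/2 in whole-cell lysates, fitted to a 4-parameter logistic curve for IC50. Prior to lysis, AsPC-1 cells (25,000 per well) received a 2 h compound dose-response at 37 °C.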

MIA PaCa-2 cells = experiment: MIA PaCa-2 CTG Assay (CellTiter-Glo cell viability); type: cell-based, human; settings: Homo sapiens; Mia PaCa-2, 72 h; second value of the cell; read-out: G12D/C/V Cell Proliferation CTG (72 h) Mia PaCa-2
Outline: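 IC50 values come from a 4-parameter logistic fit of CellTiter-Glo luminescence, normalized to DMSO control, after 72 h compound exposure at 37° C, 5% CO2. Cells grew in RPMI 1640 plus 10% FBS and were seeded at 1.67E+04 cells/mL one night before dosing.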

SW620 cells = experiment: SW620 CTG Assay (CellTiter-Glo cell viability); type: cell-based, human; settings: SW620, 72 h, third value of the cell, read-out: G12D/C/V Cell Proliferation CTG (72 h) SW620
Outline: (§1)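 IC50 values derive from 4-parameter logistic fits of CellTiter-Glo luminescence, expressed relative to DMSO. Compound dilution series were applied to overnight-seeded AsPC-1 or SW620 cells (RPMI 1640, 10% FBS) for 72 h at 37 °C, 5% CO2.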

[2] = target: His-tagged KRAS G12D protein (Homo sapiens (Human), UniProt P01116, G12D); experiment: KRAS G12D TR-FRET Assay; type: binding; settings: read-out: KRAS G12D Binding IC50
Outline: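 Each incubation ran at room temperature: enzyme with compound for 30 minutes, peptide for one hour, and detection reagents (0.4 nM europium anti-6×His, 5 nM streptavidin-d2) for one hour more. Protein and peptide stocks were each diluted to 20 nM before addition.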

[3] = system: p-ERK in PANC 04.03 tumor-bearing mice; experiment: Tumor Pharmacodynamic Assay (p-ERK inhibition in PANC 04.03 tumors); type: in vivo; settings: Mus musculus; PANC 04.03 tumor-bearing female athymic nude mice; single oral dose 100 mg/kg; tumors harvested 2 hr later; relative to vehicle group
Method: Tumor Pharmacodynamic Assays
Inhibitor pharmacodynamic effects were assessed in PANC 04.03 tumor-bearing mice. PANC 04.03 tumor cells (5.0E+06 cells) were injected subcutaneously into the flank of female athymic nude mice in a mixture with Matrigel (BD Bioscience). Mice received a single oral dose of either vehicle or inhibitor (100 mg/kg) when the average tumor size reached -300-600 mm^3 (n=3/group) and harvested 2 hours later. Tumor samples were collected, snap frozen, and processed for analysis by pulverizing with a cryoPREP® Dry Impactor (Covaris). Pulverized samples were resuspended in RIPA lysis buffer containing protease and phosphatase inhibitors and homogenized. Cleared lysates were analyzed using phospho-ERK1/2 and total ERK1/2 whole cell lysate kits (Meso Scale Discovery) according to the manufacturer's protocol. Phospho-ERK1/2 signal was normalized to total ERK1/2 signal for a given sample, and percent inhibition of p-ERK was calculated relative to the vehicle group.

[4] = target: GDP-bound KRAS protein (aa 1-169), containing both G12D and C118A amino acid substitutions (Homo sapiens (Human), UniProt P01116, C118A/G12D); experiment: KRAS G12D Coupled Nucleotide Exchange Assay; type: biochemical; settings: read-out: KRAS G12D Coupled Exchange IC50
AsPC-1 cells = experiment: AsPC-1 CTG Assay (CellTiter-Glo cell viability); type: cell-based, human; settings: AsPC-1, 72 h, first value of the cell, read-out: G12D/C/V Cell Proliferation CTG (72 h) AsPC-1
Outline: as §1

GDP-bound KRAS protein (aa 1-169), containing both G12D and C118A amino acid substitutions, sequence (P01116 other isoform, or with tags, fused parts or gaps G12D/C118A): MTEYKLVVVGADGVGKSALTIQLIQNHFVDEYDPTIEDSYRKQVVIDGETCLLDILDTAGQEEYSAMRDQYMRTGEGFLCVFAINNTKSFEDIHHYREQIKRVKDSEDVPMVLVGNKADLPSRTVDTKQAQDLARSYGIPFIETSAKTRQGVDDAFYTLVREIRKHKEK
His-tagged KRAS G12D protein, sequence (P01116 other isoform, or with tags, fused parts or gaps G12D): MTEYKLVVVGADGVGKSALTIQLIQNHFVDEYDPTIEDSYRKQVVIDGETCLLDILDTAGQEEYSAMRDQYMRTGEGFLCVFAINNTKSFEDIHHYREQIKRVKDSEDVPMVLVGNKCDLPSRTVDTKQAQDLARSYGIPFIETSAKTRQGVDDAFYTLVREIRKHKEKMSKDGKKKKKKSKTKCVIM

Row | IC50 ([1]; Homo sapiens, ASPC1, 2 h) [nM] | IC50 (MIA PaCa-2 cells) [nM] | IC50 (SW620 cells; Homo sapiens, SW-620) [nM] | IC50 [2] [nM] | IC50 [4] [nM] | IC50 (AsPC-1 cells; Homo sapiens, ASPC1, 72 h) [nM] | SMILES | inhibition in vivo at 100 mg/kg [3] [%] | further results
1 | – | – | – | – | – | – | Fc1c2ncc3c(nc(OC[C@@]45CCCN4C[C@H](F)C5)nc13)N1CCCC3(CC(C3)OCCCCc3c(Cl)cc4[nH]ncc4c3-2)C1 | – | ring closure, yield after HPLC (from Fc1c(-c2c(CCCCOC3CC4(CCCNC4)C3)c(Cl)cc3[nH]ncc23)ncc2c(OCC(F)(F)F)nc(OC[C@@]34CCCN3C[C@H](F)C4)nc12, snar bond, 17-membered ring, Cs2CO3, MeCN/DMF, 5.0 mM, 80.0 °C): 5%
2 | 1.3 | 7 | 4 | 5 | 3 | 6 | Cc1cc2[nH]ncc2c2c1CCOC(=O)O[C@H]1C[C@@]3(CCCN(C3)c3nc(OC[C@@]45CCCN4C[C@H](F)C5)nc4c(F)c-2ncc34)C1 [Example 194, (1S,3R)-32-fluoro-24-(((2R,7aS)-2-fluorotetrahydro-1H-pyrrolo[1,2-a]pyrrol-7a(5H)-yl)methoxy)-10-methyl-4,6-dioxa-13,14,19,23,25,27-hexaazaheptacyclo[25.3.1.1~1,3~.1~18,22~.0~9,17~.0~12,16~.0~21,26~]tritriaconta-9,11,14,16,18(32),19,21,23,25-nonaen-5-one] | 88 | –
3 | – | – | – | – | – | – | COCOc1cc2c3c(c(F)ccc3c1)CCCC(=O)N[C@]1(C)CCCN(C1)c1nc(OC)nc3c(F)c-2ncc13 | – | ring closure, yield after HPLC (from COCOc1cc(-c2ncc3c(N4CCC[C@@](C)(N)C4)nc(OC)nc3c2F)c2c(CCCC(=O)O)c(F)ccc2c1, amide bond, 16-membered ring, HATU/DIEA, then HCl/dioxane, DMF, 8.3 mM, 25.0 °C, 2 steps): 5%
4 | 0.7 | 2 | 3 | 4 | 1 | 5 | O=C1OCCc2c(Cl)cc3[nH]ncc3c2-c2ncc3c(nc(OC[C@@]45CCCN4C[C@H](F)C5)nc3c2F)N2CCC[C@]3(C2)C[C@H](C3)O1 [Example 249, (1S,3R)-10-chloro-32-fluoro-24-(((2R,7aS)-2-fluorotetrahydro-1H-pyrrolo[1,2-a]pyrrol-7a(5H)-yl)methoxy)-4,6-dioxa-13,14,19,23,25,27-hexaazaheptacyclo[25.3.1.1~1,3~.1~18,22~.0~9,17~.0~12,16~.0~21,26~]tritriaconta-9,11,14,16,18(32),19,21,23,25-nonaen-5-one] | 90 | –
5 | 9 | 20 | 20.8 | 2 | 1 | 80 | Cc1cc2[nH]ncc2c2c1CCCOC(=O)O[C@@H]1COCCN(C1)c1nc(OC[C@@]34CCCN3C[C@H](F)C4)nc3c(F)c-2ncc13 [Example 97, (26S)-32-fluoro-4-(((2R,7aS)-2-fluorotetrahydro-1H-pyrrolo[1,2-a]pyrrol-7a(5H)-yl)methoxy)-18-methyl-23,25,28-trioxa-1,3,5,9,14,15-hexaazahexacyclo[24.4.1.1~6,10~.0~2,7~.0~11,19~.0~12,16~]dotriaconta-2,4,6,8,10(32),11,13,16,18-nonaen-24-one] | 85 | –
6 | 2 | 1 | 10 | 3 | 2 | 30 | O=C1OCCCc2c(Cl)cc3[nH]ncc3c2-c2ncc3c(nc(OC[C@@]45CCCN4C[C@H](F)C5)nc3c2F)N2CCOC[C@H](C2)O1 [Example 99, (26S)-18-Chloro-32-fluoro-4-(((2R,7aS)-2-fluorotetrahydro-1H-pyrrolo[1,2-a]pyrrol-7a(5H)-yl)methoxy)-23,25,28-trioxa-1,3,5,9,14,15-hexaazahexacyclo[24.4.1.1˜6,10˜.0˜2,7˜.0˜11,19˜.0˜12,16˜]dotriaconta-2,4,6,8,10(32),11,13,16,18-nonaen-24-one] | 91 | –
7 | – | – | – | 238 | 342 | – | C[C@@]12CCCN(C1)c1nc(OC[C@@]34CCCN3C[C@H](F)C4)nc3c(F)c(ncc13)-c1cccc3c1N(CCCC(=O)N2)CCC3 [Example 13, (15R)-31-Fluoro-8-(((2R,7aS)-2-fluorotetrahydro-1H-pyrrolo[1,2-a]pyrrol-7a(5H)-yl)methoxy)-15-methyl-3,7,9,11,16,21-hexaazahexacyclo[19.7.1.1˜2,6˜.1˜11,15˜.0˜5,10˜.0˜25,29˜]hentriaconta-1(29),2(31),3,5,7,9,25,27-octaen-17-one bis(2,2,2-trifluoroacetate)] | – | ring closure, yield after HPLC (from C[C@@]1(N)CCCN(c2nc(OC[C@@]34CCCN3C[C@H](F)C4)nc3c(F)c(-c4cccc5c4N(CCCC(=O)O)CCC5)ncc23)C1, amide bond, 16-membered ring, HATU/TEA, DCM/THF/DMA, 0.98 mM, 25.0 °C): 33%
8 | 1.9 | 1 | 2 | 3 | 2 | 8 | C[C@@]12COCCN(C1)c1nc(OC[C@@]34CCCN3C[C@H](F)C4)nc3c(F)c(ncc13)-c1c(c(Cl)cc3[nH]ncc13)CCCOC(=O)O2 [Example 191, (26S)-18-chloro-32-fluoro-4-(((2R,7aS)-2-fluorotetrahydro-1H-pyrrolo[1,2-a]pyrrol-7a(5H)-yl)methoxy)-26-methyl-23,25,28-trioxa-1,3,5,9,14,15-hexaazahexacyclo[24.4.1.1~6,10~.0~2,7~.0~11,19~.0~12,16~]dotriaconta-2,4,6,8,10(32),11,13,16,18-nonaen-24-one] | 91 | –
9 | – | – | – | – | – | – | CSc1nc2c3cnc(c(C)c3n1)-c1cc(O)cc3ccc(F)c(c13)CCCC(=O)N[C@]1(C)CCCN2C1 | – | ring closure, yield after HPLC (from CSc1nc(N2CCC[C@@](C)(N)C2)c2cnc(-c3cc(O)cc4ccc(F)c(CCCC(=O)O)c34)c(C)c2n1, amide bond, 16-membered ring, HATU, then Me2NH, DCM/DMA/DMF, 5.6 mM, 25.0 °C, 4.0 h): 32%

Row | SMILES | IC50 ([1]; Homo sapiens, ASPC1, 2 h) [nM] | IC50 (MIA PaCa-2 cells) [nM] | IC50 (SW620 cells; Homo sapiens, SW-620) [nM] | IC50 [2] [nM] | IC50 [4] [nM] | IC50 (AsPC-1 cells; Homo sapiens, ASPC1, 72 h) [nM] | inhibition in vivo at 100 mg/kg [3] [%] | further results
10 | O=C1CCCc2cccc3cc(O)cc(c23)-c2ncc3c(nc(OC[C@@]45CCCN4C[C@H](F)C5)nc3c2F)N2CCC[C@H](C2)N1 [Example 1, (15R)-31-Fluoro-8-(((2R,7aS)-2-fluorotetrahydro-1H-pyrrolo[1,2-a]pyrrol-7a(5H)-yl)methoxy)-27-hydroxy-3,7,9,11,16-pentaazahexacyclo[19.7.1.1˜2,6˜.1˜11,15˜.0˜5,10˜.0˜25,29˜]hentriaconta-1(28),2(31),3,5,7,9,21,23,25(29),26-decaen-17-one bis(2,2,2-trifluoroacetate)] | 196 | – | – | 5 | 4 | 1930 | – | ring closure, yield after HPLC (from N[C@@H]1CCCN(c2nc(OC[C@@]34CCCN3C[C@H](F)C4)nc3c(F)c(-c4cc(O)cc5cccc(CCCC(=O)O)c45)ncc23)C1, amide bond, 16-membered ring, HATU/DIEA, then NH3/MeOH, DMF, 8.9 mM, 25.0 °C, 1.0 h): 7%
11 | Fc1c2ncc3c(nc(OC[C@@]45CCCN4C[C@H](F)C5)nc13)N1CCO[C@@H](COCCCCc3c(Cl)cc4[nH]ncc4c3-2)C1 [Example 135, (17R)-9-Chloro-30-fluoro-24-(((2R,7aS)-2-fluorotetrahydro-1H-pyrrolo[1,2-a]pyrrol-7a(5H)-yl)methoxy)-15,18-dioxa-5,6,21,23,25,29-hexaazahexacyclo[24.3.1.1˜17,21.0˜2,10˜.0˜3,7˜.0˜22,27˜]hentriaconta-1(30),2,4,7,9,22,24,26,28-nonaene trifluoroacetate] | – | – | – | 3 | 2 | – | – | IC50 ([1]; 2 h): 17 nM; ring closure, yield after HPLC (from Oc1nc(OC[C@@]23CCCN2C[C@H](F)C3)nc2c(F)c(-c3c(CCCCOC[C@H]4CNCCO4)c(Cl)cc4[nH]ncc34)ncc12, snar bond, 16-membered ring, BroP/DIEA, MeCN/DMSO, 4.7 mM, 25.0 °C): 39%; IC50 (SW620 cells): 55.1 nM; IC50 (AsPC-1 cells): 250 nM
